“Also recorded” adds a separate entry of the source. Structures can show the parent of a compound that is named as a salt.
Columns and labels:
[1] = tested on: CD-1 mice; experiment: cortical EEG and behaviour in mice at convulsive and non-convulsive doses; conditions: 150 mg/kg i.p.; for seizure-like behavioural activity over time, second study pair: time after injection
Method: Test system: 30 healthy female mice, of strain CD-1, having a bodyweight of 25-29 g, were acclimatized for a minimum period of 4 days and used for this study. Each animal, after allocation to groups, was identified by markings on the dorsal surface of the tail. Environmental conditions included a temperature of 22±3° C., and artificial lighting of 12 hours light/dark cycle. Routine activities such as cleaning, feeding and watering were performed according to the RCSl's current SOPS.
The diluent used was 0.9% sodium chloride solution. Storage temperature was at about 25° C.
Test Item Administration: The test item was administered intraperitoneally using a disposable syringe with a 1 ml syringe and 26 g needle. The route of administration was intraperitoneal.
Protocol: Habituated mice were anesthetized with isofolurane, placed in a stereotaxic frame and maintained normothermic (36-37° C.) by means of a feedback-controlled mouse-designed homeothermic blanket (Harvard Apparatus). Under isoflurane anaesthesia, a midline skill incision was made over the skull and the skull exposed. Three partial craniectomies were performed: one overlying each temporal lobe and a third across the region overlying frontal cortex. Mouse-sized cranial EEG (E363/20, electrode with mounting screw and socket, Plastics One Inc) were affixed at each point. The electrode assembly was affixed to the skull with dental cement and then anaesthesia discontinued and the animal placed in the recording chamber for 30-60 minutes after recovery. Electrodes were then connected to a multichannel 363 Connector Cable system with SL6C 6 channel swivel commutator and baseline EEG recordings commenced using a Grass model Comet Portable 40-channel Digital EEG & Review System with Twin digital EEG in tandem with continuous digital video. […] Mice were run in parallel so that a hydrochloride mouse was injected within minutes of a hydrobromide mouse and recordings made simultaneously. Video-EEG was recorded for a period of one (1) hour. Afterwards, mice were returned to cages and then euthanized at 24 h and brains harvested.
Analysis: The duration of type IV polyspike high frequency (>1 Hz) high amplitude (>2× baseline) was determined for each mouse over the 1 h recording period.

[2] = Closed vial / closed glass bottle stability (40° C./75% RH) of bupropion salt APIs; type: physicochemical
[3] = TGA of bupropion salts; type: physicochemical; conditions: at 400° C.
Method: 2-5 mg of each salt was placed in an aluminium pan and covered with its lid. DSC was run for each sample at the rate of 10 degrees C./min (for HBr salt, different rates were used to investigate for polymorphs) from 30 degrees C. to 400 degrees C. TGA was also used for each of the HBr, HCl, maleate and tosylate salts.
(§1) The salts were analyzed by DSC (at 10° C./min from 30° C. up to 400° C.) and the pH (aq. 0.5%), and the moisture content by KF were also measured. The TGA was performed on the HCl, maleate, tosylate and HBr salts.

[4] = Solubility and other physical properties, Bupropion HBr vs Bupropion HCl
[5] = moisture content by KF and pH (aq. 0.5%) of bupropion salts; type: physicochemical; conditions: salt as received
Method: The eight salts were first evaluated by HPLC, KF, pH and DSC for purity, water content, aqueous pH and possible polymorphs.
as §1

[6] = 10-Days, closed glass bottle 40 C./75% RH, HBr Lot# STN07491, HCl Lot# STN06973
[7] = 10 Days, closed glass bottle 40 C./75% RH, HBr Lot# STN07492, HCl Lot# STN06978
[8] = 14-Days, closed glass bottle 40° C./75% RH, HBr Lot# STN07492, HCl L# STN06973
[9] = 24 Days, closed glass bottle 40° C./75% RH, HBr Lot# STN07492, HCl L# STN06973
[10] = 24 Days, closed glass bottle 40° C./75% RH, HBr Lot# STN07492, HCl L# STN06973, hydrochloride
[11] = Initial, closed glass bottle 40 C./75% RH, HBr Lot# STN07491, HCl Lot# STN06973
[12] = Initial, closed glass bottle 40 C./75% RH, HBr Lot# STN07492, HCl Lot# STN06978
[13] = Initial, closed glass bottle 40° C./75% RH, HBr Lot# STN07492, HCl L# STN06973
[14] = HCl from Erregierre, HBr from Chemi, hydrochloride

Compound: CC(NC(C)(C)C)C(=O)c1cccc(Cl)c1.Cl (racemic) [bupropion hydrochloride, (±)-1-(3-chlorophenyl)-2-[(1,1-dimethylethyl)amino]-1-propanone hydrochloride]
- seizure EEG ([1]; n=4 per salt, cortical electrodes, 1 h, listed as HCl, hydrochloride): no seizure EEG; also recorded: two very brief EEG bursts; also recorded: brief burst of seizure
- seizure-like behavioural activity over time, second study pair [1]: about 30 mins

Compound: CC(NC(C)(C)C)C(=O)c1cccc(Cl)c1 (stereo not shown) [Bupropion HCl, bupropion hydrochloride]
- % Assay [2, 6]: 96.3%
- % Impurities 3-CBZ [2, 6]: 0.110%
- % Impurities 20U78/dilu [2, 6]: 0.047%
- % Impurities 827U76 [2, 6]: 0.045%
- % Impurities 852U77 [2, 6]: 0.047%
- % Impurities Total unknown [2, 6]: 0.187%
- % Impurities Total (%) ([2]; 10-Days, closed glass bottle 40 C./75% RH, HBr Lot# STN07491, HCl Lot# STN06973, hydrochloride): 0.44%
- % Assay [2, 7]: 96.5%
- % Impurities 3-CBZ [2, 7]: 0.278%
- % Impurities 20U78/dilu [2, 7]: 0.057%
- % Impurities 827U76 [2, 7]: 0.141%
- % Impurities 852U77 [2, 7]: 0.124%
- % Impurities Total unknown [2, 7]: 0.137%
- % Impurities Total (%) ([2]; 10 Days, closed glass bottle 40 C./75% RH, HBr Lot# STN07492, HCl Lot# STN06978, hydrochloride): 0.74%
- % Assay [2, 8]: 98.5%
- % Impurities 3-CBZ [2, 8]: 0.019%
- % Impurities 20U78/dilu [2, 8]: 0.038%
- % Impurities 852U77 [2, 8]: 0.010%
- % Impurities Total unknown [2, 8]: 0.038%
- % Impurities Total (%) ([2]; 14-Days, closed glass bottle 40° C./75% RH, HBr Lot# STN07492, HCl L# STN06973, hydrochloride): 0.11%
- % Assay [2, 9]: 98.5%
- % Impurities 3-CBZ [2, 9]: 0.082%
- % Impurities 827U76 [2, 9]: 0.102%
- % Impurities 852U77 [2, 9]: 0.023%
- % Impurities Total unknown [2, 9]: 0.049%
- % Impurities 20U78/dilu [2, 10]: 0.040%
- % Impurities Total (%) [2, 10]: 0.30%
- % Assay [2, 11]: 99.4%
- % Impurities 3-CBZ [2, 11]: 0.003%
- % Impurities 20U78/dilu [2, 11]: 0.040%
- % Impurities Total unknown [2, 11]: 0.053%
- % Impurities Total (%) ([2]; Initial, closed glass bottle 40 C./75% RH, HBr Lot# STN07491, HCl Lot# STN06973, hydrochloride): 0.10%
- % Assay [2, 12]: 99.1%
- % Impurities 3-CBZ [2, 12]: 0.002%
- % Impurities 20U78/dilu [2, 12]: 0.04%
- % Impurities Total unknown [2, 12]: 0.165%
- % Impurities Total (%) ([2]; Initial, closed glass bottle 40 C./75% RH, HBr Lot# STN07492, HCl Lot# STN06978, hydrochloride): 0.21%
- % Assay [2, 13]: 100.4%
- % Impurities 3-CBZ [2, 13]: 0.002%
- % Impurities 20U78/dilu [2, 13]: 0.043%
- % Impurities 852U77 [2, 13]: 0.003%
- % Impurities Total unknown [2, 13]: 0.044%
- % Impurities Total (%) ([2]; Initial, closed glass bottle 40° C./75% RH, HBr Lot# STN07492, HCl L# STN06973, hydrochloride): 0.09%
- residue (TGA) [3]: minimal residues
- solubility ([4]; EtOH): 80 mg/mL
- pH (aq. 0.5%) ([4]; HCl from Erregierre, HBr from Chemi): 5.90
- PS (Malvern) 10% [4, 14]: 10% 32 μm
- PS (Malvern) 50% [4, 14]: 50% 102 μm
- PS (Malvern) 90% [4, 14]: 90% 276 μm
- moisture content KF [4, 14]: 0.01%
- solubility ([4]; IPA): 10 mg/mL
- solubility ([4]; Water): 270 mg/mL

Compound: Br.CC(NC(C)(C)C)C(=O)c1cccc(Cl)c1 (stereo not shown) [bupropion hydrobromide]
- duration of convulsive behavior, hydrobromide versus hydrochloride ([1]; study pairs 1, 2 and 3): lasted longer than the hydrochloride-treated mouse
- seizure-like behavioural activity over time, second study pair [1]: still observing rearing and falling, forepaw running and turning in the hydrobromide-treated mouse at 60 minutes
- moisture content KF [5]: 0.00%
- pH of the aqueous solution of 0.5% [5]: 5.92

Source: patent US7645802B2 (Biovail Laboratories International SRL., priority 2005, dated 2010)
